≈ marks a conversion by molar mass, not a printed value.
Tests used:
Assay type in all cases: cell-based
K. pneumoniae MP-648 = assay: Broth dilution MIC determination (CLSI), K. pneumoniae MP-648; settings: Klebsiella pneumoniae, MP648; strain MP-648, broth dilution
S. aureus MP-12 = assay: Broth dilution MIC determination (CLSI), S. aureus MP-12; settings: Staphylococcus aureus, MP12; strain MP-12, broth dilution
P. aeruginosa MP-3 = assay: Broth dilution MIC determination (CLSI), P. aeruginosa MP-3; settings: Pseudomonas aeruginosa, MP3; strain MP-3, broth dilution
E. coli MP-4 = assay: Broth dilution MIC determination (CLSI), E. coli MP-4; settings: Escherichia coli, MP4; strain MP-4, broth dilution; read-out: MIC E. coli MP-4
K. pneumoniae MP-546 = assay: Broth dilution MIC determination (CLSI), K. pneumoniae MP-546; settings: Klebsiella pneumoniae, MP546; strain MP-546, broth dilution
A. baumannii MP-15 = assay: Broth dilution MIC determination (CLSI), A. baumannii MP-15; settings: Acinetobacter baumannii, MP15; strain MP-15, broth dilution; read-out: MIC A. baumanii MP-15

| MIC (K. pneumoniae MP-648) | MIC (S. aureus MP-12) | MIC (P. aeruginosa MP-3) | MIC (E. coli MP-4) | MIC (K. pneumoniae MP-546) | MIC (A. baumannii MP-15) | Compound |
| --- | --- | --- | --- | --- | --- | --- |
| 4 to 32 µg/mL (≈ 6.69 to 53.5 µM) | > 32 µg/mL | > 32 µg/mL | < 4 µg/mL | 4 to 32 µg/mL (≈ 6.69 to 53.5 µM) | > 32 µg/mL | CO[C@]1(C)C[C@@H](C)CN(C)[C@H]([C@H]2C[C@@H](N(C)C)C2)COC(=O)C(C)(C)C(=O)[C@H](C)[C@H]1O[C@@H]1O[C@H](C)C[C@H](N(C)C)[C@H]1O [Compound 128, (3R,6R,8R,9R,10R)-9-(((2S,3R,4S,6R)-4-(dimethylamino)-3-hydroxy-6-methyltetrahydro-2H-pyran-2-yl)oxy)-3-((1s,3S)-3-(dimethylamino)cyclobutyl)-8-methoxy-4,6,8,10,12,12-hexamethyl-1-oxa-4-azacyclotridecane-11,13-dione] |
| < 4 µg/mL | 4 to 32 µg/mL (≈ 6.25 to 50 µM) | > 32 µg/mL | < 4 µg/mL | < 4 µg/mL | 4 to 32 µg/mL (≈ 6.25 to 50 µM) | CO[C@]1(C)C[C@@H](C)CN(C)[C@H]([C@H]2C[C@H](N(C)CC(C)C)C2)COC(=O)C(C)(C)C(=O)[C@H](C)[C@H]1O[C@@H]1O[C@H](C)C[C@H](N(C)C)[C@H]1O [Compound 131, (3R,6R,8R,9R,10R)-9-(((2S,3R,4S,6R)-4-(dimethylamino)-3-hydroxy-6-methyltetrahydro-2H-pyran-2-yl)oxy)-3-((1r,3R)-3-(isobutyl(methyl)amino)cyclobutyl)-8-methoxy-4,6,8,10,12,12-hexamethyl-1-oxa-4-azacyclotridecane-11,13-dione] |
| 4 to 32 µg/mL (≈ 5.86 to 46.9 µM) | > 32 µg/mL | > 32 µg/mL | 4 to 32 µg/mL (≈ 5.86 to 46.9 µM) | > 32 µg/mL | > 32 µg/mL | CCN(C)CCCC(=O)N1CC([C@@H]2COC(=O)C(C)(C)C(=O)[C@H](C)[C@@H](O[C@@H]3O[C@H](C)C[C@H](N(C)C)[C@H]3O)[C@](C)(OC)C[C@@H](C)CN2C)C1 [Compound 135, (3R,6R,8R,9R,10R)-9-(((2S,3R,4S,6R)-4-(dimethylamino)-3-hydroxy-6-methyltetrahydro-2H-pyran-2-yl)oxy)-3-(1-(4-(ethyl(methyl)amino)butanoyl)azetidin-3-yl)-8-methoxy-4,6,8,10,12,12-hexamethyl-1-oxa-4-azacyclotridecane-11,13-dione] |
| > 32 µg/mL | > 32 µg/mL | > 32 µg/mL | 4 to 32 µg/mL (≈ 6.54 to 52.3 µM) | > 32 µg/mL | > 32 µg/mL | CCCN1CC([C@@H]2[C@@H](C)OC(=O)C(C)(C)C(=O)[C@H](C)[C@@H](O[C@@H]3O[C@H](C)C[C@H](N(C)C)[C@H]3O)[C@](C)(OC)C[C@@H](C)CN2C)C1 [Compound 136, (2R,3R,6R,8R,9R,10R)-9-(((2S,3R,4S,6R)-4-(dimethylamino)-3-hydroxy-6-methyltetrahydro-2H-pyran-2-yl)oxy)-8-methoxy-2,4,6,8,10,12,12-heptamethyl-3-(1-propylazetidin-3-yl)-1-oxa-4-azacyclotridecane-11,13-dione] |
| 4 to 32 µg/mL (≈ 5.66 to 45.3 µM) | > 32 µg/mL | > 32 µg/mL | < 4 µg/mL | 4 to 32 µg/mL (≈ 5.66 to 45.3 µM) | > 32 µg/mL | CO[C@]1(C)C[C@@H](C)CN(C)[C@H](C2CN(C(=O)[C@@H]3CCN(CC4CC4)C3)C2)COC(=O)C(C)(C)C(=O)[C@H](C)[C@H]1O[C@@H]1O[C@H](C)C[C@H](N(C)C)[C@H]1O [Compound 145, (3R,6R,8R,9R,10R)-3-(1-((R)-1-(cyclopropylmethyl)pyrrolidine-3-carbonyl)azetidin-3-yl)-9-(((2S,3R,4S,6R)-4-(dimethylamino)-3-hydroxy-6-methyltetrahydro-2H-pyran-2-yl)oxy)-8-methoxy-4,6,8,10,12,12-hexamethyl-1-oxa-4-azacyclotridecane-11,13-dione] |
| 4 to 32 µg/mL (≈ 5.53 to 44.3 µM) | > 32 µg/mL | > 32 µg/mL | < 4 µg/mL | 4 to 32 µg/mL (≈ 5.53 to 44.3 µM) | > 32 µg/mL | CO[C@]1(C)C[C@@H](C)CN(C)[C@H](C2CN(C(=O)CCCN(C)CC3CCC3)C2)COC(=O)C(C)(C)C(=O)[C@H](C)[C@H]1O[C@@H]1O[C@H](C)C[C@H](N(C)C)[C@H]1O [Compound 156, (3R,6R,8R,9R,10R)-3-(1-(4-((cyclobutylmethyl)(methyl)amino)butanoyl)azetidin-3-yl)-9-(((2S,3R,4S,6R)-4-(dimethylamino)-3-hydroxy-6-methyltetrahydro-2H-pyran-2-yl)oxy)-8-methoxy-4,6,8,10,12,12-hexamethyl-1-oxa-4-azacyclotridecane-11,13-dione] |
| < 4 µg/mL | 4 to 32 µg/mL (≈ 6.25 to 50 µM) | > 32 µg/mL | < 4 µg/mL | < 4 µg/mL | > 32 µg/mL | CO[C@]1(C)C[C@@H](C)CN(C)[C@](C)(C2CCN(C(C)C)CC2)COC(=O)C(C)(C)C(=O)[C@H](C)[C@H]1O[C@@H]1O[C@H](C)C[C@H](N(C)C)[C@H]1O [Compound 158, (3R,6R,8R,9R,10R)-9-(((2S,3R,4S,6R)-4-(dimethylamino)-3-hydroxy-6-methyltetrahydro-2H-pyran-2-yl)oxy)-3-(1-isopropylpiperidin-4-yl)-8-methoxy-3,4,6,8,10,12,12-heptamethyl-1-oxa-4-azacyclotridecane-11,13-dione] |

Further lines, the molecule ahead of its results:

| Compound | MIC (K. pneumoniae MP-648) | MIC (S. aureus MP-12) | MIC (P. aeruginosa MP-3) | MIC (E. coli MP-4) | MIC (K. pneumoniae MP-546) | MIC (A. baumannii MP-15) |
| --- | --- | --- | --- | --- | --- | --- |
| CO[C@]1(C)C[C@@H](C)CN(C)[C@H](C2CN(Cc3cc(C)on3)C2)COC(=O)C(C)(C)C(=O)[C@H](C)[C@H]1O[C@@H]1O[C@H](C)C[C@H](N(C)C)[C@H]1O [Compound 132, (3R,6R,8R,9R,10R)-9-(((2S,3R,4S,6R)-4-(dimethylamino)-3-hydroxy-6-methyltetrahydro-2H-pyran-2-yl)oxy)-8-methoxy-4,6,8,10,12,12-hexamethyl-3-(1-((5-methylisoxazol-3-yl)methyl)azetidin-3-yl)-1-oxa-4-azacyclotridecane-11,13-dione] | > 32 µg/mL | 4 to 32 µg/mL (≈ 6.15 to 49.2 µM) | > 32 µg/mL | 4 to 32 µg/mL (≈ 6.15 to 49.2 µM) | 4 to 32 µg/mL (≈ 6.15 to 49.2 µM) | > 32 µg/mL |
| CO[C@]1(C)C[C@@H](C)CN(C)[C@H](C2CN(C(=O)CN3CCCC3)C2)COC(=O)C(C)(C)C(=O)[C@H](C)[C@H]1O[C@@H]1O[C@H](C)C[C@H](N(C)C)[C@H]1O [Compound 138, (3R,6R,8R,9R,10R)-9-(((2S,3R,4S,6R)-4-(dimethylamino)-3-hydroxy-6-methyltetrahydro-2H-pyran-2-yl)oxy)-8-methoxy-4,6,8,10,12,12-hexamethyl-3-(1-(2-(pyrrolidin-1-yl)acetyl)azetidin-3-yl)-1-oxa-4-azacyclotridecane-11,13-dione] | 4 to 32 µg/mL (≈ 6 to 48 µM) | 4 to 32 µg/mL (≈ 6 to 48 µM) | > 32 µg/mL | < 4 µg/mL | < 4 µg/mL | > 32 µg/mL |
| CO[C@]1(C)C[C@@H](C)CN(C)[C@H](C2CN(C(=O)CCCN(C)C)C2)COC(=O)C(C)(C)C(=O)[C@H](C)[C@H]1O[C@@H]1O[C@H](C)C[C@H](N(C)C)[C@H]1O [Compound 139, (3R,6R,8R,9R,10R)-9-(((2S,3R,4S,6R)-4-(dimethylamino)-3-hydroxy-6-methyltetrahydro-2H-pyran-2-yl)oxy)-3-(1-(4-(dimethylamino)butanoyl)azetidin-3-yl)-8-methoxy-4,6,8,10,12,12-hexamethyl-1-oxa-4-azacyclotridecane-11,13-dione] | > 32 µg/mL | > 32 µg/mL | > 32 µg/mL | 4 to 32 µg/mL (≈ 5.98 to 47.8 µM) | > 32 µg/mL | > 32 µg/mL |
| CCCN1CCC([C@]2(C)COC(=O)C(C)(C)C(=O)[C@H](C)[C@@H](O[C@@H]3O[C@H](C)C[C@H](N(C)C)[C@H]3O)[C@](C)(OC)C[C@@H](C)CN2C)CC1 [Compound 143, (3R,6R,8R,9R,10R)-9-(((2S,3R,4S,6R)-4-(dimethylamino)-3-hydroxy-6-methyltetrahydro-2H-pyran-2-yl)oxy)-8-methoxy-3,4,6,8,10,12,12-heptamethyl-3-(1-propylpiperidin-4-yl)-1-oxa-4-azacyclotridecane-11,13-dione] | < 4 µg/mL | > 32 µg/mL | > 32 µg/mL | < 4 µg/mL | < 4 µg/mL | > 32 µg/mL |
| CO[C@]1(C)C[C@@H](C)CN(C)[C@H](C2CN(C(=O)CCN(C)CC3CC3)C2)COC(=O)C(C)(C)C(=O)[C@H](C)[C@H]1O[C@@H]1O[C@H](C)C[C@H](N(C)C)[C@H]1O [Compound 144, (3R,6R,8R,9R,10R)-3-(1-(3-((cyclopropylmethyl)(methyl)amino)propanoyl)azetidin-3-yl)-9-(((2S,3R,4S,6R)-4-(dimethylamino)-3-hydroxy-6-methyltetrahydro-2H-pyran-2-yl)oxy)-8-methoxy-4,6,8,10,12,12-hexamethyl-1-oxa-4-azacyclotridecane-11,13-dione] | > 32 µg/mL | > 32 µg/mL | > 32 µg/mL | < 4 µg/mL | 4 to 32 µg/mL (≈ 5.76 to 46 µM) | > 32 µg/mL |
| CO[C@]1(C)C[C@@H](C)CN(C)[C@H](C2CN(CC3CC3)C2)[C@@H](C)OC(=O)C(C)(C)C(=O)[C@H](C)[C@H]1O[C@@H]1O[C@H](C)C[C@H](N(C)C)[C@H]1O [Compound 146, (2R,3R,6R,8R,9R,10R)-3-(1-(cyclopropylmethyl)azetidin-3-yl)-9-(((2S,3R,4S,6R)-4-(dimethylamino)-3-hydroxy-6-methyltetrahydro-2H-pyran-2-yl)oxy)-8-methoxy-2,4,6,8,10,12,12-heptamethyl-1-oxa-4-azacyclotridecane-11,13-dione] | > 32 µg/mL | > 32 µg/mL | > 32 µg/mL | 4 to 32 µg/mL (≈ 6.41 to 51.3 µM) | > 32 µg/mL | > 32 µg/mL |
| CO[C@]1(C)C[C@@H](C)CN(C)[C@H](C2CCN(C(C)C)CC2)COC(=O)C(C)(C)C(=O)[C@H](C)[C@H]1O[C@@H]1O[C@H](C)C[C@H](N(C)C)[C@H]1O [Compound 151] | < 4 µg/mL | > 32 µg/mL | > 32 µg/mL | < 4 µg/mL | < 4 µg/mL | > 32 µg/mL |
